# Assay results reported in patent US20240148819A1, “COMPOUNDS FOR USE IN THE TREATMENT OF SINUSITIS, PNEUMONIA OR OTITIS” (PHARMA HOLDINGS AS, priority 2021, published 2024).
# Where two headings read alike, the source gives them in different places.
# How the values were obtained:
# HeLaM cells = details: 1% LTX-7 (w/v) or 0.25% SDS in PBS, contact time 1 h, after filtration, no virus
# Protocol: (§7) A parallel test where the same procedure was carried out in the absence of virus was included to determine any residual cytotoxic effect of LTX-7 on the assay cells.
# Mycoplasma pneumoniae = details: both of the library strains of Mycoplasma pneumoniae
# Protocol: Two library strains of Mycoplasma pneumoniae were used. These strains were stored at GR Micro Ltd. and maintained, with minimal sub-culture, deep frozen at −70° C. as a dense suspension in a high protein matrix of undiluted horse serum.
# MIC determination was carried out using a broth microdilution method in Mycoplasma Broth Base (Oxoid Ltd, Hampshire, UK), prepared according to the manufacturer's instructions.
# [1] = test system: Rhinovirus (HRV-A60), Strain: 2268-CV37; experiment: TCID50 assay after 1 h incubation of virus with LTX-7 (Example 10); type: cell-based; details: 1% LTX-7 or 0.25% SDS; for % Reduction: Rhinovirus infectivity; for % Reduction / Log decrease: compared to PBS control; for Log decrease: Rhinovirus
# [2] = test system: Influenza A strain A/WSN/33 (H1N1); type: cell-based, Influenza A virus
# Aspergillus niger = Aspergillus niger - G. R. Micro collection
# Protocol: (§1) Bacterial and fungal isolates used in this study were from various sources worldwide stored at GR Micro Ltd. and maintained, with minimal sub-culture, deep frozen at −70° C. as a dense suspension in a high protein matrix of undiluted horse serum.
# (§2) Minimum inhibitory concentration (MIC) of LTX-109 was determined using the following microbroth dilution methods for antimicrobial susceptibility testing published by the Clinical and Laboratory Standards Institute (CLSI, formerly NCCLS): • M7-A6 Vol. 23 No. 2 Jan. 2003 Methods for Dilution Antimicrobial Susceptibility Tests for Bacteria that Grow Aerobically; Approved Standard-Sixth Edition. National Committee for Clinical Laboratory Standards. • M100-S15 Vol. 25 No 1. January 2005 Performance Standards for Antimicrobial Susceptibility Testing; Fifteenth Informational Supplement. Clinical and Laboratory Standards Institute • M11-A6 Vol. 24 No. 2 Methods for Antimicrobial Susceptibility Testing of Anaerobic Bacteria; Approved Standard-Sixth Edition. National Committee for Clinical Laboratory Standards. • M27-A2 Vol. 22 No. 15 Reference Method for Broth Dilution Antifungal Susceptibility Testing of Yeasts; Approved Standard-Second Edition. National Committee for Clinical Laboratory Standards. • M38-A Vol. 22 No. 16 Reference Method for Broth Dilution Antifungal Susceptibility Testing of Filamentous Fungi; Approved Standard. National Committee for Clinical Laboratory Standards.
# (§3) MIC estimations were performed using wet plates, containing the LTX-109, prepared at GR Micro Ltd.
# (§4) Yeast and filamentous fungal MIC were performed in MOPS buffered RPMI 1640 medium (MOPS buffer obtained from Sigma Aldrich Ltd., RPMI 1640 obtained from Invitrogen Ltd, Paisley, Scotland). The yeast inocula were in the range 7.5×10^2-4×10^3 CFU/mL and the filamentous fungi approximately 8×10^3-1×10^5 CFU/mL.
# (§5) Following normal practice all the plates containing Mueller-Hinton broth were prepared in advance, frozen at −70° C. on the day of preparation and defrosted on the day of use. Fungal, Haemophilus and anaerobic MIC determinations were all performed in plates prepared on the same day.
# Candida tropicalis = Candida tropicalis - ATCC750 - reference strain
# Protocol: as §1, §2, §3, §4, §5
# Candida albicans = test system: Candida albicans
# Protocol: as §1, §2, §3, §4, §5
# Candida parapsilosis = Candida parapsilosis - ATCC90018 - reference strain
# Protocol: as §1, §2, §3, §4, §5
# Candida krusei = Candida krusei - ATCC6258 - reference strain
# Protocol: as §1, §2, §3, §4, §5
# Streptococcus pneumoniae = test system: Streptococcus pneumoniae
# Protocol: as §1, §2, §3
# (§6) Cation-adjusted Mueller-Hinton broth (Oxoid Ltd., Basingstoke, UK and Trek Diagnostic Systems Ltd., East Grinstead, UK) (supplemented with 5% laked horse blood for Streptococcus spp.) was used for aerobic bacteria, with an initial inoculum of approximately 10^5 colony-forming units (CFU)/mL.
# as §5
# Moraxella catarrhalis = test system: Moraxella catarrhalis
# Protocol: as §1, §2, §3, §6, §5
# Streptococcus pyogenes = Streptococcus pyogenes - macrolide (MLS) resistant clinical isolate
# Protocol: as §1, §2, §3, §6, §5
# MDCK-II cells = details: 1% LTX-7 (w/v) or 0.2% Triton X-100 in PBS, contact time 1 h, after filtration, no virus
# Protocol: as §7
# Vero cells = experiment: Parallel test without virus for residual cytotoxicity (Example 8); details: 1% LTX-12 (w/v) or 0.2% Triton in PBS, contact time 1 h, after filtration, no virus
# [3] = test system: SARS-CoV-2 isolate England/02/2020; type: cell-based
# HeLa cells [4] = experiment: Parallel test without virus for residual cytotoxicity (Example 7); type: cell-based, human; details: 3% LTX-109 (w/v) or 0.25% SDS, after dilution (50 μl in 5 ml), no virus
# Protocol: (§8) A parallel test where the same procedure was carried out in the absence of virus was included to determine any residual cytotoxic effect of the formulation on the assay cells.
# HeLa cells [5] = details: 1% LTX-109 (w/v) or 0.25% SDS, after filtration, no virus, dilution showing cytotoxicity
# Protocol: as §8
# Rhinovirus 60, 2268-CV37 [6] = experiment: TCID50 assay after 1 h incubation of virus with 1% LTX-109 (Example 6); type: cell-based
# Rhinovirus 60, 2268-CV37 [7] = experiment: TCID50 assay after 1 h incubation of virus with 3% LTX-109, stopped by dilution (Example 7); type: cell-based
compound,measurement,setting,value
"N=C(N)NCCCC(N)C(=O)NC(Cc1ccc(-c2ccc3ccccc3c2)cc1)C(=O)NC(CCCNC(=N)N)C(=O)NCCc1ccccc1 (stereo not drawn) [LTX-7, Arg-Phe(4-(2-Naphthyl))-Arg-NH—CH2—CH2-Ph]",Cytotoxicity,HeLaM cells,Neat
same,MIC,Mycoplasma pneumoniae,32 µg/mL
same,% Reduction,[1],95.791%
same,Log decrease,[1],1.33 log
same,% Reduction,[2],99.9988%
same,MIC,Aspergillus niger,4 µg/mL
same,MIC,Candida tropicalis,2 µg/mL
same,MIC,Candida albicans; Candida albicans - ATCC24433 - reference strain,2 µg/mL
same,MIC,Candida albicans; Candida albicans - ATCC90028 - reference strain,2 µg/mL
same,MIC,Candida parapsilosis,4 µg/mL
same,MIC,Candida krusei,4 µg/mL
same,MIC,Streptococcus pneumoniae; Streptococcus pneumoniae - penicillin intermediate clinical isolate,32 µg/mL
same,MIC,Streptococcus pneumoniae; Streptococcus pneumoniae - penicillin resistant clinical isolate,32 µg/mL
same,MIC,Moraxella catarrhalis; Moraxella catarrhalis - reduced fluoroquinolone susceptibility clinical isolate,8 µg/mL
same,MIC,Moraxella catarrhalis; Moraxella catarrhalis - β-lactamase positive clinical isolate,4 µg/mL
same,MIC,Streptococcus pyogenes,32 µg/mL
same,Cytotoxicity,MDCK-II cells,neat
"CC(C)(C)c1cc(C(C)(C)C)c2[nH]c(C(C)(C)C)c(CC(NC(=O)C(N)CCCCN)C(=O)NC(CCCCN)C(=O)NCCc3ccccc3)c2c1 (stereo not drawn) [LTX-12, Lys-Tbt-Lys-NH—CH2—CH2-Ph]",Cytotoxicity,Vero cells,No cytotoxicity
same,% Reduction,[3],99.977%
"CCCCCCCCCCCCOS(=O)(=O)[O-].[Na+] [SDS, Sodium dodecyl sulphate]",Cytotoxicity,HeLa cells [4],Neat
same,Cytotoxicity,HeLaM cells,Neat
same,Cytotoxicity,HeLa cells [5],Neat
same,TCID50/ml ± SEM,"Rhinovirus 60, 2268-CV37 [6]; Rhinovirus titre recovered after 1 hour with 1% LTX-109 (w/v) or 0.25% SDS, filtration, HeLa cells, 7 days",1.00E+02 TCID50/ml
same,Log decrease,"Rhinovirus 60, 2268-CV37 [6]; Rhinovirus, 1% LTX-109 or 0.25% SDS, 1 hour, compared to PBS control",3.6 log
same,Percentage,"Rhinovirus 60, 2268-CV37 [6]; decrease in Rhinovirus infectivity, 1% LTX-109 or 0.25% SDS, 1 hour, compared to PBS control",99.98%
same,Log,"Rhinovirus 60, 2268-CV37 [6]; log of Rhinovirus titre after 1 hour with 1% LTX-109 or 0.25% SDS",2.0
same,% Reduction,[1],99.983%
same,Log decrease,[1],3.67 log
same,Rounded %,[1]; rounded % reduction of Rhinovirus infectivity,99.9%
same,TCID50/ml ± SEM,"Rhinovirus 60, 2268-CV37 [7]; Rhinovirus titre recovered after 1 hour with 3% LTX-109 (w/v) or 0.25% SDS, dilution, no filter, HeLa cells, 7 days",1.58E+01 TCID50/ml
same,Log decrease,"Rhinovirus 60, 2268-CV37 [7]; Rhinovirus, 3% LTX-109 or 0.25% SDS, 1 hour, compared to PBS control",3.0 log
same,Percentage,"Rhinovirus 60, 2268-CV37 [7]; decrease in Rhinovirus infectivity, 3% LTX-109 or 0.25% SDS, 1 hour, compared to PBS control",99.91%
same,Log,"Rhinovirus 60, 2268-CV37 [7]; log of Rhinovirus titre after 1 hour with 3% LTX-109 or 0.25% SDS",1.2
